25 molecules from ChEMBL document CHEMBL1145321, “Evaluation of indenoisoquinoline topoisomerase I inhibitors using a hollow fiber assay” (2006) can be followed below.

The experiment relates to Panel NCI-60 (60 carcinoma cell lines). Kind of experiment: Antiproliferative activity against human NCI60 cell line measured as mean graph midpoint. It counts as functional.

As for `COc1cc2c3c(n(CCN)c(=O)c2cc1OC)-c1cc2c(cc1C3=O)OCO2.Cl`, the Activity was 0.338 µM.
`Cl.NCCCn1c2c(c3ccccc3c1=O)C(=O)c1ccccc1-2` returned an Activity of 0.315 µM.
For `COc1cc2c3c(n(C)c(=O)c2cc1OC)-c1cc2c(cc1C3=O)OCO2`, the Activity was 20 µM.
For the molecule `COc1cc2c3c(n(Cc4ccccc4)c(=O)c2cc1OC)-c1cc2c(cc1C3=O)OCO2`, the Activity came out at 41.6 µM.
Next, `COc1cc2c(cc1[N+](=O)[O-])C(=O)N(CCCBr)[C@@H]1c3cc4c(cc3C(=O)[C@H]21)OCO4`: 0.016 µM.
The figure for `COc1cc2c(cc1OC)[C@H]1C(=O)c3cc4c(cc3[C@H]1N(CCCBr)C2=O)OCO4` is 0.69 µM.
`Cl.NCCCCn1c2c(c3ccccc3c1=O)C(=O)c1ccccc1-2` returned an Activity of 0.156 µM.
The figure for `Cl.c1c2c(cc3c1OCO3)-c1ncc3cc4c(cc3c1C2)OCO4` is 0.271 µM; for `Cn1c2c(c3ccccc3c1=O)C(=O)c1cc3c(cc1-2)OCO3` it is 45 µM.
The figure for `COc1cc2c(cc1OC)[C@H]1C(=O)c3cc4c(cc3[C@H]1N(Cc1ccccc1)C2=O)OCO4` is 1.18 µM.
Next, `COc1cc2c3c(n(C)c(=O)c2cc1OC)-c1cc2c(cc1/C3=C/CCCI)OCO2`: 8.49 µM; `O=C1c2cc3c(cc2-c2c1c1ccccc1c(=O)n2CCCNCCCO)OCO3`: 15.5 µM.
Consider `COc1cc2c3c(n(CCCNCCNCCN)c(=O)c2cc1OC)-c1cc2c(cc1C3=O)OCO2.Cl`, for which the Activity came out at 2.4 µM.
Next, `CC(=O)O[C@H]1C(=O)[C@@]2(C)[C@H]([C@H](OC(=O)c3ccccc3)[C@]3(O)C[C@H](OC(=O)[C@H](O)[C@@H](NC(=O)c4ccccc4)c4ccccc4)C(C)=C1C3(C)C)[C@]1(OC(C)=O)CO[C@@H]1C[C@@H]2O` [PACLITAXEL]: 0.0253 µM.
Next, `Cl.NCCCn1c2c(c3ccc([N+](=O)[O-])cc3c1=O)C(=O)c1ccccc1-2`: 0.146 µM; `Cl.O=C1c2ccccc2-c2c1c1ccccc1c(=O)n2CCCNCCCn1ccnc1`: 1.01 µM; `COc1cc2c3c(n(CCCCO)c(=O)c2cc1OC)-c1cc2c(cc1C3=O)OCO2`: 3.2 µM.
The figure for `COc1cc2c3c(n(CCCN)c(=O)c2cc1OC)-c1cc2c(cc1C3=O)OCO2.Cl` is 0.16 µM; for `CC[C@@]1(O)C(=O)OCc2c1cc1n(c2=O)Cc2cc3ccccc3nc2-1` [CAMPTOTHECIN] it is 0.0405 µM; for `[N-]=[N+]=NCCCn1c2c(c3ccc([N+](=O)[O-])cc3c1=O)C(=O)c1cc3c(cc1-2)OCO3` it is 0.098 µM.
Take `O=C1c2ccccc2-c2c1c1ccccc1c(=O)n2CCCCCO`: the Activity was 14.4 µM.
The figure for `Cl.NCCCn1c2c(c3ccccc3c1=O)C(=O)c1cc3c(cc1-2)OCO3` is 0.251 µM; for `COc1cc2c3c(n(CCCNCCN)c(=O)c2cc1OC)-c1cc2c(cc1C3=O)OCO2.Cl.Cl` it is 0.347 µM; for `CCCCn1c2c(c3cc(OC)c(OC)cc3c1=O)C(=O)c1cc3c(cc1-2)OCO3` it is 41.6 µM.
Next, `CC[C@]1(O)C[C@@H]2CN(CCc3c([nH]c4ccccc34)[C@@](C(=O)OC)(c3cc4c(cc3OC)N(C)[C@H]3[C@@](O)(C(=O)OC)[C@H](OC(C)=O)[C@]5(CC)C=CCN6CC[C@]43[C@@H]65)C2)C1.O=S(=O)(O)O` [VINBLASTINE SULFATE]: 0.025 µM.
